Data on 1 compound can be found in patent US20160213647A1, “COMPOSITIONS AND METHODS FOR INHIBITING VIRAL INFECTION” (priority 2015, published 2016).

Read-outs that look alike come from different tables or passages of the source. Some results are limits rather than exact numbers.

In one data set the test system is DENV-4. Description: Virus yield reduction assay by qRT-PCR in Vero cells. It is filed as cell-based. The settings on record: Dengue virus, DENV4, Vero, 48 h, read-out: Antiviral Activity IC50.
The next data set has as its system DENV-2. The data set is described as above. It is filed as cell-based. The settings on record: Dengue virus, DENV2, Vero, 48 h, read-out: Antiviral Activity IC50.
The test system of the next data set is Vaccinia. Description: microbe, parasite or virus in culture. The note with it: Orthopoxvirus vaccinia. The class given is cell-based.
Another data set relates to HIV-1 isolate 1022-48. Description: microbe, parasite or virus in culture. The settings on record: Human immunodeficiency virus 1, PBMC.
The subject of another data set is CHIKV 899 wild-type. Description: Chikungunya virus-induced cell death (CPE, MTS/PMS) assay in Vero A cells.
Another data set has as its system Vero cells. The note with it: African green monkey.
For data set [1] the following is noted: in vivo; cited from earlier work.
Another data set concerns Human cytomegalovirus. The data set can be described thus: microbe, parasite or virus in culture. The class given is cell-based. The note with it: Human betaherpesvirus 5.
In another data set the test system is JUNV strain XJCl3. Description: microbe, parasite or virus in culture. The note with it: Mammarenavirus juninense, Vero, 48 h.
Data set [2] concerns arenavirus Tacaribe (TCRV), strain TRLV11573. Description: microbe, parasite or virus in culture. It is filed as cell-based, Tacaribe virus. The note with it: A549.
For a further data set, the system named is DENV-3. The data set can be described thus: Virus yield reduction assay by qRT-PCR in Vero cells. The note with it: Dengue virus, DENV3, Vero, 48 h, read-out: Antiviral Activity IC50. The class given is cell-based.
A further data set relates to HIV-1 isolate 4736_4. The data set can be described thus: microbe, parasite or virus in culture. The note with it: Human immunodeficiency virus 1, PBMC.

For the compound `NCC(=O)Nc1ccc(-n2nc(C(F)(F)F)cc2-c2ccc3c(ccc4ccccc43)c2)cc1` [AR-12, 2-amino-N-(4-(5-(phenanthren-2-yl)-3-(trifluoromethyl)-1H-pyrazol-1-yl)phenyl)acetamide], the IC50 was 890 nM in the data set with DENV-4, 800 nM with DENV-2 and 600 nM in the data set on DENV-3. Besides, the EC50 is over 2400 nM in the data set on Vaccinia; 1100 ± 500 nM with CHIKV 899 wild-type (Chikungunya virus, Vero, read-out: EC50 WT); over 2400 nM in the data set on Human cytomegalovirus; 230 ± 10 nM in the data set on JUNV strain XJCl3; 840 ± 20 nM in data set [2]. Further, the EC90 with Vaccinia and with Human cytomegalovirus was over 2400 nM in each case. For the same compound, the IC90 in the data set on HIV-1 isolate 1022-48 stood at 489 nM; with HIV-1 isolate 1022-48 (read-out: IC50), 3680 nM; with HIV-1 isolate 4736_4, 762 nM; with HIV-1 isolate 4736_4 (read-out: IC50), 2240 nM. Moreover, the selectivity index in the data set on CHIKV 899 wild-type (CC50/EC50, wild-type ChikV) was determined as 5.8. In addition, in the data set with Vero cells, the MNTD was over 10 µM. Moreover, in data set [1], the accumulation in tissues entry was “appreciable accumulation in tissues”. Also, the “blood brain barrier penetration” value in [1] was “rapid blood brain barrier penetration”.
